In the NIST ThermoML archive (doi:10.1016/j.jct.2016.07.005):

Experiment: xn = mol fraction of the nth substance listed
Conditions: 100 kPa, Liquid; for viscosity: Concentric cylinders viscometry; for mass density: Vibrating tube method

CN1CCC[C@H]1c1cccnc1 [(-)-3-(N-methylpyrrolidino)pyridine] + CCC(C)O
Conditions	mass density [kg/m3]	viscosity [mPa·s]
293.15 K, x1 = 0.1	841.874	3.496
293.15 K, x1 = 0.2036	873.003	3.46
293.15 K, x1 = 0.3	898.284	3.593
293.15 K, x1 = 0.4	921.306	3.845
293.15 K, x1 = 0.5	941.501	4.157
293.15 K, x1 = 0.6	959.218	4.476
293.15 K, x1 = 0.6956	974.099	4.734
293.15 K, x1 = 0.8	988.293	4.907
293.15 K, x1 = 0.9	1000.07	4.909
293.15 K, x1 = 1	1010.23	4.694
298.15 K, x1 = 0.1	837.728	2.96
298.15 K, x1 = 0.2036	868.857	2.981
298.15 K, x1 = 0.3	894.137	3.11
298.15 K, x1 = 0.4	917.159	3.319
298.15 K, x1 = 0.5	937.354	3.566
298.15 K, x1 = 0.6	955.075	3.813
298.15 K, x1 = 0.6956	969.963	4.015
298.15 K, x1 = 0.8	984.171	4.158
298.15 K, x1 = 0.9	995.971	4.179
298.15 K, x1 = 1	1006.16	4.048
303.15 K, x1 = 0.1	833.532	2.521
303.15 K, x1 = 0.2036	864.676	2.579
303.15 K, x1 = 0.3	889.965	2.704
303.15 K, x1 = 0.4	912.993	2.881
303.15 K, x1 = 0.5	933.194	3.08
303.15 K, x1 = 0.6	950.921	3.277
303.15 K, x1 = 0.6956	965.82	3.439
303.15 K, x1 = 0.8	980.047	3.558
303.15 K, x1 = 0.9	991.873	3.591
303.15 K, x1 = 1	1002.1	3.518
308.15 K, x1 = 0.1	829.273	2.162
308.15 K, x1 = 0.2036	860.452	2.244
308.15 K, x1 = 0.3	885.762	2.367
308.15 K, x1 = 0.4	908.808	2.523
308.15 K, x1 = 0.5	929.021	2.691
308.15 K, x1 = 0.6	946.761	2.853
308.15 K, x1 = 0.6956	961.675	2.987
308.15 K, x1 = 0.8	975.925	3.09
308.15 K, x1 = 0.9	987.783	3.128
308.15 K, x1 = 1	998.055	3.088
313.15 K, x1 = 0.1	824.949	1.875
313.15 K, x1 = 0.2036	856.182	1.975
313.15 K, x1 = 0.3	881.53	2.094
313.15 K, x1 = 0.4	904.598	2.232
313.15 K, x1 = 0.5	924.831	2.373
313.15 K, x1 = 0.6	942.588	2.508
313.15 K, x1 = 0.6956	957.521	2.62
313.15 K, x1 = 0.8	971.798	2.713
313.15 K, x1 = 0.9	983.692	2.761
313.15 K, x1 = 1	994.014	2.758
318.15 K, x1 = 0.1	820.559	1.627
318.15 K, x1 = 0.2036	851.865	1.734
318.15 K, x1 = 0.3	877.259	1.848
318.15 K, x1 = 0.4	900.359	1.974
318.15 K, x1 = 0.5	920.616	2.099
318.15 K, x1 = 0.6	938.394	2.214
318.15 K, x1 = 0.6956	953.35	2.308
318.15 K, x1 = 0.8	967.662	2.383
318.15 K, x1 = 0.9	979.601	2.419
318.15 K, x1 = 1	989.984	2.411
323.15 K, x1 = 0.1	816.09	1.434
323.15 K, x1 = 0.2036	847.491	1.55
323.15 K, x1 = 0.3	872.943	1.662
323.15 K, x1 = 0.4	896.089	1.778
323.15 K, x1 = 0.5	916.374	1.888
323.15 K, x1 = 0.6	934.178	1.989
323.15 K, x1 = 0.6956	949.16	2.071
323.15 K, x1 = 0.8	963.511	2.141
323.15 K, x1 = 0.9	975.504	2.183
323.15 K, x1 = 1	985.962	2.195
